Measurements reported in US5856156A, “Microbial cholesterol dehydrogenase, process for its production and use” (Boehringer Mannheim GmbH, priority 1994, dated 1999).

What follows are molecules tested on chol-DH (assay: Variation of the redox mediators used, chol-DH activity by the HPLC method). Conditions: relative chol-DH activity with the mediator as artificial electron acceptor, 37° C., pH 7.0.
Type: biochemical, Rhodococcus spec.
Design: reference not given here
Description: The enzyme sample was purified as described in example 2a) and subsequently its property of converting cholesterol was evaluated with the following methods.
An enzyme test was used to determine the chol-DH activity by quantifying the cholestenone formed in which the enzyme reaction proceeded for a defined time period before it was stopped by adding a protein-denaturing agent. Afterwards the amount of product was determined and expressed as μmol per minute and volume unit of the enzyme solution (=volume activity) or weight unit of the protein (=specific activity).
The cholestenone formed was quantified by HPLC analysis after stopping the chol-DH reaction:
One unit is the enzyme activity which oxidizes 1 μmol cholesterol per minute to cholestenone under the test conditions (37° C., pH 7.0). In this case the chol-DH activity is derived from the difference between the cholestenone concentrations of the test mixture and the blank (see above). [formula]
Apart from methyl-1,4-benzoquinone other redox mediators are suitable as electron acceptors for chol-DH. The chol-DH activity was determined by the HPLC method. Various redox mediators are listed in Table 1 that can serve as artificial electron acceptors for chol-DH.
With `O=C1C(Cl)=CC(=Nc2ccc(O)cc2)C=C1Cl` [2,6-dichlorophenol-indophenol] the “chol-DH [%]” value was 52%. For `O=Nc1ccc(N(CCO)CCO)cc1` [N,N-bis-2(hydroxyethyl)p-nitrosoaniline], the “chol-DH [%]” value was 45%. `CN(C)c1ccc(N=O)cc1` [N,N-dimethy1-4-nitrosoaniline] was tested, and the “chol-DH [%]” value was 95%. `CC1=CC(=O)C=CC1=O` [methyl-1,4-benzoquinone] was tested, and the “chol-DH [%]” value was 100%. `O=C1C=CC(=O)C=C1` [p-benzoquinone] was tested, and the “chol-DH [%]” value was 109%. For `O=C1C(Cl)=C(Cl)C(=O)C(Cl)=C1Cl` [tetrachloro-p-benzoquinone], the “chol-DH [%]” value was 27%.
